Laboratory results taken from patent US10583137B2, “Triazole DAGLα inhibitors” (THE SCRIPPS RESEARCH INSTITUTE, priority 2015, dated 2020).
One block for each compound: values may come before it.

What was measured:
[1] = test system: LPS-induced neuroinflammatory responses (brain lipids, cytokines, body temperature); assay: LPS-induced neuroinflammatory responses in mouse brain; type: in vivo; settings: mice
Protocol: The effects of pharmacological and genetic inactivation of DAGL activity on neuroinflammatory responses (brain prostaglandin and cytokine production) induced by high-dose lipopolysaccharide treatment was examined.
Mice were treated with compounds 14, 17, control compound 22 or vehicle (50 mg/kg, i.p) for 60-90 min, followed by LPS (20 mg/kg, i.p., 6 hr) or vehicle. The mice were subsequently sacrificed and their brain lipid and cytokine profiles analyzed. […] The LPS-induced elevations in both 2-AG and PGE2 were suppressed in compound 14 and compound 17 treated mice and DAGLα/mice, but not compound 22 treated mice. […] LPS-induced anapyrexia was blunted in compound 14 and 17 treated mice (FIG. 8E) and DAGLα−/− mice (FIG. 8F), but not compound 22 treated mice (FIG. 8E).

[2] = test system: DSE at parallel fiber to Purkinje cell synapses; assay: depolarization-induced suppression of excitation (DSE) in acute cerebellar slices; settings: 10 μM
Text: Various forms of synaptic plasticity are regulated by 2-AG signaling, included depolarization-induced suppression of excitation (DSE) and inhibition (DSI). DSE was examined at parallel fiber (PF) to Purkinje cell (PC) synapses in acute cerebellar slices. A brief depolarization of PCs induced robust transient DSE at PF-PC synapses in vehicle treated cerebellar slices (FIG. 7A).

[3] = test system: brain 2-AG and other DAGL-regulated lipids; assay: brain lipid profiles of treated mice by LC-MS; type: in vivo, mouse; settings: 50 mg/kg i.p., 4 hr post-dosing
Protocol: Brain lipid profiles of mice treated with compounds 14, 17 and control compound 22.
Mice were treated with 50 mg/kg compound (i.p.), followed by lipid profiling using LC-MS at a 4 hr post-dosing. […] This depletion of brain 2-AG in compound 14 and 17-treated mice was dose-dependent (data not shown) and was observed within 2 h after injection. […] The changes in each lipid species were dose-dependent and were absent in compound 22 treated mice (FIGS. 6C, E, G, I, and K).

recombinant human DAGLα = recombinant human DAGLα (Homo sapiens (Human), UniProt Q9Y4D2); assay: SAG substrate assay (in vitro inhibition of 2-AG biosynthesis), membrane lysates from HEK293T cells; type: biochemical; settings: any dose tested
Protocol: DAGL modulators were tested for in vitro inhibition of 2-AG biosynthesis using a 1-stearoyl-2-arachidonoyl-sn-glycerol (SAG) substrate assay in DAGL-transfected HEK293 cells.
The SAG substrate assay, as described in Journal of lipid research 56(4):927-935, was performed using the following assay conditions: 0.2 U/mL glycerol kinase (GK), glycerol-3-phosphate oxidase (GPO) and horseradish peroxidase (HRP), 0.125 mM ATP, 10 μM Amplifu™Red, 5% DMSO in a total volume of 200 μL. The assay additionally contained SAG, a DAGL modulator, and membrane lysates from HEK293T cells expressing recombinant human DAGLα or DAGLβ.
Membranes were prepared from HEK293T cells transiently transfected with DAGLα or DAGLβ plasmids encoding for full length DAGLα or DAGLβ, respectively (Angewandte Chemie 52(46):12081-12085; Journal of Medicinal Chemistry 57(15):6610-6622). Briefly, one day prior to transfection, 10^7 cells were seeded in a 15 cm petri dish. The seeded cells were transfected by the addition of a 3:1 mixture of polyethyleneimine (60 μg) and plasmid DNA (20 μg) in 2 mL serum free medium. The medium was refreshed after 24 hr, and after 72 hr the cells were harvested by suspending them in 20 mL medium. The suspension was centrifuged for 10 min at 1000 rpm, and the supernatant was removed. The cell pellet was stored at −80° C. until use. Cell pellets were thawed on ice and suspended in lysis buffer A (20 mM HEPES, 2 mM DTT, 0.25 M sucrose, 1 mM MgCl2, lx protease inhibitor cocktail (Roche cOmplete EDTA free), 25 U/μL Benzonase). The suspension was homogenized by polytrone (3×7 sec) and incubated for 30 min on ice. The suspension was subjected to ultracentrifugation (100,000×g, 30 min, 4° C., Beckman Coulter, Type Ti70 rotor) to yield the cytosolic fraction in the supernatant and the membrane fraction as a pellet. The pellet was resuspended in lysis buffer B (20 mM HEPES, 2 mM DTT, lx protease inhibitor cocktail (Roche cOmplete EDTA free)) and the protein concentration determined with Quick Start Bradford assay (Biorad). The protein fractions were diluted to a total protein concentration of 1 mg/mL and stored in small aliquots at −80° C. until use.

[4] = test system: DSI at CA1 pyramidal neuron synapses; assay: depolarization-induced suppression of inhibition (DSI) in hippocampal slices; settings: 10 μM, bath application 30 min
Protocol: DSI was evaluated at CA1 pyramidal neuron synapses in hippocampal slices. DSI was induced in vehicle-treated hippocampal slices by applying a brief depolarization while evoking […] through stimulation of synaptic inhibitory inputs (FIG. 7C). Bath application of compound 14 (10 μM) and compound 17 (1 μM), but not compound 22 (10 μM), for 30 min before starting electrophysiological recordings blocked hippocampal DSI (FIGS. 7C and D).

DAGLβ (hDAGLβ-FLAG) = DAGLβ (hDAGLβ-FLAG) (Homo sapiens (Human), UniProt Q8NCG7); assay: competitive ABPP, membrane proteome of transfected HEK293T cells; type: biochemical; settings: for inhibition at 0.8 µM: 0.8 μM (stated under the cell), read-out: DAGLβ % inh. 0.8 μM; for inhibition at 0.4 µM: read-out: DAGLβ % inh. 0.4 μM; for IC50: read-out: DAGLβ IC50
Procedure, shortened: (§1)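 HEK293T membrane proteome (1 mg/ml) expressing FLAG-tagged human DAGLα or DAGLβ, treated 30 min at room temperature with compound, then 30 min with HT-01 or FP-Rh probe (1 μM). Bands separated by SDS-PAGE were normalized to DMSO for IC50 by variable-slope fit.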

DAGLα (hDAGLα-FLAG) = DAGLα (hDAGLα-FLAG) (Homo sapiens (Human), UniProt Q9Y4D2); assay: as above; type: biochemical; settings: for inhibition at 0.8 µM: 0.8 μM (stated under the cell), read-out: DAGLα % inh. 0.8 μM; for inhibition at 0.4 µM: read-out: DAGLα % inh. 0.4 μM; for IC50: read-out: DAGLα IC50
Procedure, shortened: as §1

[5] = 50 mg/kg i.p. 60-90 min before LPS 20 mg/kg i.p., 6 hr

Sequence of DAGLβ (hDAGLβ-FLAG) (Q8NCG7 whole entry): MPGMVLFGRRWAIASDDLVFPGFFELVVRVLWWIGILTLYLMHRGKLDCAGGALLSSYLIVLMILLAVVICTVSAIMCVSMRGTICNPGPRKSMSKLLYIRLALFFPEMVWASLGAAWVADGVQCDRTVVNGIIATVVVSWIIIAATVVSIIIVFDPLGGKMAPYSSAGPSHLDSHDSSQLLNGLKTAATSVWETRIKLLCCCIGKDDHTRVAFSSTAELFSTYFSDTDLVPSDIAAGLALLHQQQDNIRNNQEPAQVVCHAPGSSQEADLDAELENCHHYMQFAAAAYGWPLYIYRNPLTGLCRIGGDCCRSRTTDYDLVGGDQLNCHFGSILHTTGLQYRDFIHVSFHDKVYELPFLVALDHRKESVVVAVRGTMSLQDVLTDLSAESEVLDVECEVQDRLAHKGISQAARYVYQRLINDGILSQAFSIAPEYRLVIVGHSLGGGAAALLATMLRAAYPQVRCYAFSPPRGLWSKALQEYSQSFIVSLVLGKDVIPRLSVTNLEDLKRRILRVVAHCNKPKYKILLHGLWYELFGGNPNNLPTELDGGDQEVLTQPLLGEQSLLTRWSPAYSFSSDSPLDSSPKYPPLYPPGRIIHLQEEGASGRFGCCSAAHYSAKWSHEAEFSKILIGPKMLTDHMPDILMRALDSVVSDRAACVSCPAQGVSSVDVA
Sequence of DAGLα (hDAGLα-FLAG) (Q9Y4D2 whole entry): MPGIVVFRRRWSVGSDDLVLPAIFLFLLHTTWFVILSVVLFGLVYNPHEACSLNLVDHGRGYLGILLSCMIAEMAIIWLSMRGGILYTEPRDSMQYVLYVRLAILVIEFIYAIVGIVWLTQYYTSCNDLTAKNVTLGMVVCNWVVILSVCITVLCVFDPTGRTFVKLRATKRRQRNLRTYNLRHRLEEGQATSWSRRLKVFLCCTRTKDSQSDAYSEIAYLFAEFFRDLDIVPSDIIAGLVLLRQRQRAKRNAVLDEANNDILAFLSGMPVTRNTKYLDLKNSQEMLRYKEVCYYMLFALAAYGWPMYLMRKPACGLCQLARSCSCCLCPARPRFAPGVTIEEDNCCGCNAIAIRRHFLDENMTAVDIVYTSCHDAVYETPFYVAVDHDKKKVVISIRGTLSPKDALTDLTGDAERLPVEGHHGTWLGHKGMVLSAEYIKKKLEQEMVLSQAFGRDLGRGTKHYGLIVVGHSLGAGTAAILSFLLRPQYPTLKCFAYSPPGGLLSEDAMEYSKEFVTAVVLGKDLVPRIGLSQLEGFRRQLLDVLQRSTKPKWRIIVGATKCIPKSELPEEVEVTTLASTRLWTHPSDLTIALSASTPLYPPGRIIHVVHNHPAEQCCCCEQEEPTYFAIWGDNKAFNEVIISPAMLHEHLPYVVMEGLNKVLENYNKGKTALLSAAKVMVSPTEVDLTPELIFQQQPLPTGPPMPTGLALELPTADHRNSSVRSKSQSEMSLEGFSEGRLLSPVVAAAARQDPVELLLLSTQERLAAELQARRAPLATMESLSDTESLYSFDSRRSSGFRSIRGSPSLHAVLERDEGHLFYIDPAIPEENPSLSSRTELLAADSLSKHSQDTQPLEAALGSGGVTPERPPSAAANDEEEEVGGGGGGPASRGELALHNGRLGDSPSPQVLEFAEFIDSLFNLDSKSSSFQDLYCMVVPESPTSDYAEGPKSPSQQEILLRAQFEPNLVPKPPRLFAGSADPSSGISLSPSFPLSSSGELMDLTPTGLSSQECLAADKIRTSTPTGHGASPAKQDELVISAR
Sequence of recombinant human DAGLα (Q9Y4D2 whole entry): as above

SMILES: CC(C)(C)OC(=O)N1CCN(C(=O)n2cc(-c3ccc(OC(F)(F)F)cc3)nn2)C(c2ccccc2)C1 (centres unmarked) [Compound 22, tert-butyl 3-phenyl-4-(4-(4-(trifluoromethoxy)phenyl)-1H-1,2,3-triazole-1-carbonyl)piperazine-1-carboxylate]
- LPS-induced elevation in brain 2-AG [1, 5]: not
- LPS-induced elevation in brain PGE2 [1, 5]: not
- LPS-induced anapyrexia ([1]; 50 mg/kg i.p. before LPS): not
- brain AA under basal control conditions ([1]; 50 mg/kg i.p., no LPS): not
- brain PGE2 under basal control conditions ([1]; 50 mg/kg i.p., no LPS): not
- effect on cerebellar DSE [2]: did not alter
- brain 2-AG levels [3]: not
- brain AA [3]: absent
- brain AEA [3]: absent
- brain C18:1/C20:4 DAG [3]: absent
- brain PGD2 [3]: absent
- brain PGE2 [3]: absent
- brain SAG [3]: absent
- inhibition of DAGLα (recombinant human DAGLα): did not substantially inhibit
- effect on hippocampal DSI [4]: not
- inhibition at 0.8 µM (DAGLβ (hDAGLβ-FLAG)): 0 to 25%
- inhibition at 0.8 µM (DAGLα (hDAGLα-FLAG)): 0 to 25%

SMILES: CC(C)OC(=O)N1CCN(C(=O)n2cc(-c3ccc(OC(F)(F)F)cc3)nn2)C(Cc2ccccc2)C1 (centres unmarked) [Compound 96, isopropyl 3-benzyl-4-(4-(4-(trifluoromethoxy)phenyl)-1H-1,2,3-triazole-1-carbonyl)piperazine-1-carboxylate]
- inhibition at 0.4 µM (DAGLβ (hDAGLβ-FLAG)): 50 to 75%
- inhibition at 0.4 µM (DAGLα (hDAGLα-FLAG)): ≥ 75%

SMILES: O=C(N1CCCCC1Cc1ccccc1)n1cc(-c2ccc(-c3c(F)cncc3F)cc2)nn1 (centres unmarked) [Compound 72, (2-benzylpiperidin-1-yl)(4-(4-(3,5-difluoropyridin-4-yl)phenyl)-1H-1,2,3-triazol-1-yl)methanone]
- IC50 (DAGLβ (hDAGLβ-FLAG)): 400 to 2000 nM
- IC50 (DAGLα (hDAGLα-FLAG)): 400 to 2000 nM

SMILES: COc1cccc(OC)c1-c1ccc(-c2cn(C(=O)N3CCCCC3Cc3ccccc3)nn2)cc1 (centres unmarked) [Compound 63, (2-benzylpiperidin-1-yl)(4-(2′,6′-dimethoxy-[1,1′-biphenyl]-4-yl)-1H-1,2,3-triazol-1-yl)methanone]
- IC50 (DAGLβ (hDAGLβ-FLAG)): 2000 to 10000 nM
- IC50 (DAGLα (hDAGLα-FLAG)): ≤ 400 nM

SMILES: CCC(CC)CN(CCc1ccncc1)C(=O)n1ncc(-c2ccc(OC(F)(F)F)cc2)n1 [Compound 54, N-(2-Ethylbutyl)-N-(2-(pyridin-4-yl)ethyl)-4-(4-(trifluoromethoxy)phenyl)-2H-1,2,3-triazole-2-carboxamide]
- IC50 (DAGLβ (hDAGLβ-FLAG)): 2000 to 10000 nM
- IC50 (DAGLα (hDAGLα-FLAG)): > 10000 nM

SMILES: COc1ccc(-c2ccc(-c3cn(C(=O)N4CCCCC4Cc4ccccc4)nn3)cc2)c(OC)c1 (centres unmarked) [Compound 62, (2-benzylpiperidin-1-yl)(4-(2′,4′-dimethoxy-[1,1′-biphenyl]-4-yl)-1H-1,2,3-triazol-1-yl)methanone]
- IC50 (DAGLβ (hDAGLβ-FLAG)): 2000 to 10000 nM
- IC50 (DAGLα (hDAGLα-FLAG)): ≤ 400 nM

SMILES: Cc1cncc(C)c1-c1ccc(-c2cn(C(=O)N3CCCCC3Cc3ccccc3)nn2)cc1 (centres unmarked) [Compound 71, (2-benzylpiperidin-1-yl)(4-(4-(3,5-dimethylpyridin-4-yl)phenyl)-1H-1,2,3-triazol-1-yl)methanone]
- IC50 (DAGLβ (hDAGLβ-FLAG)): 400 to 2000 nM
- IC50 (DAGLα (hDAGLα-FLAG)): ≤ 400 nM

SMILES: CC(C)(C)OC(=O)N1CCN(C(=O)n2ncc(-c3ccc(OC(F)(F)F)cc3)n2)C(c2ccccc2)C1 (centres unmarked) [Compound 23, tert-butyl 3-phenyl-4-(4-(4-(trifluoromethoxy)phenyl)-2H-1,2,3-triazole-2-carbonyl)piperazine-1-carboxylate]
- inhibition at 0.8 µM (DAGLβ (hDAGLβ-FLAG)): 0 to 25%
- inhibition at 0.8 µM (DAGLα (hDAGLα-FLAG)): 0 to 25%

SMILES: COc1cc(OC)c(-c2cn(C(=O)N3CCCCC3Cc3ccccc3)nn2)c(OC)c1 (centres unmarked) [Compound 84, (2-benzylpiperidin-1-yl)(4-(2,4,6-trimethoxyphenyl)-1H-1,2,3-triazol-1-yl)methanone]
- IC50 (DAGLβ (hDAGLβ-FLAG)): 2000 to 10000 nM
- IC50 (DAGLα (hDAGLα-FLAG)): > 10000 nM

SMILES: O=C(N1CCCCC1Cc1ccccc1)n1cc(-c2ccc(CN3CCOCC3)cc2)nn1 (centres unmarked) [Compound 94, (2-benzylpiperidin-1-yl)(4-(4-(morpholinomethyl)phenyl)-1H-1,2,3-triazol-1-yl)methanone]
- IC50 (DAGLβ (hDAGLβ-FLAG)): 400 to 2000 nM
- IC50 (DAGLα (hDAGLα-FLAG)): ≤ 400 nM

SMILES: CNC(=O)c1cc(OC)c(-c2ccc(-c3cn(C(=O)N4CCCCC4Cc4ccccc4)nn3)cc2)c(OC)c1 (centres unmarked) [Compound 79, 4′-(1-(2-benzylpiperidine-1-carbonyl)-1H-1,2,3-triazol-4-yl)-2,6-dimethoxy-N-methyl-[1,1′-biphenyl]-4-carboxamide]
- IC50 (DAGLβ (hDAGLβ-FLAG)): > 10000 nM
- IC50 (DAGLα (hDAGLα-FLAG)): 400 to 2000 nM

The next lines start with the values.

- IC50 (DAGLβ (hDAGLβ-FLAG)): 400 to 2000 nM
- IC50 (DAGLα (hDAGLα-FLAG)): 2000 to 10000 nM
SMILES: O=C(N(CCc1ccccc1)CC1CC1)n1ncc(-c2ccc(OC(F)(F)F)cc2)n1 [Compound 131, N-(cyclopropylmethyl)-N-phenethyl-4-(4-(trifluoromethoxy)phenyl)-2H-1,2,3-triazole-1-carboxamide]

- IC50 (DAGLβ (hDAGLβ-FLAG)): ≤ 400 nM
- IC50 (DAGLα (hDAGLα-FLAG)): ≤ 400 nM
SMILES: O=C(N(CCc1ccccc1)C1CCC1)n1cc(-c2ccc(OC(F)(F)F)cc2)nn1 [Compound 124, N-cyclobutyl-N-phenethyl-4-(4-(trifluoromethoxy)phenyl)-1H-1,2,3-triazole-1-carboxamide]

- inhibition at 0.4 µM (DAGLβ (hDAGLβ-FLAG)): 0 to 25%
- inhibition at 0.4 µM (DAGLα (hDAGLα-FLAG)): 0 to 25%
SMILES: COC(=O)N1CCN(C(=O)n2ncc(-c3ccc(OC(F)(F)F)cc3)n2)C(Cc2ccccc2)C1 (centres unmarked) [Compound 98, methyl 3-benzyl-4-(4-(4-(trifluoromethoxy)phenyl)-2H-1,2,3-triazole-2-carbonyl)piperazine-1-carboxylate]

- inhibition at 0.0032 µM (DAGLβ (hDAGLβ-FLAG); read-out: DAGLβ % inh. 3.2 nM): 0 to 25%
- inhibition at 0.0032 µM (DAGLα (hDAGLα-FLAG); 3.2 nM, read-out: DAGLα % inh. 3.2 nM): 0 to 25%
SMILES: O=C(N1CCCC[C@H]1Cc1ccccc1)n1ncc(-c2ccc(OC(F)(F)F)cc2)n1 [Compound 105, (S)-(2-benzylpiperidin-1-yl)(4-(4-(trifluoromethoxy)phenyl)-2H-1,2,3-triazol-2-yl)methanone]

- IC50 (DAGLβ (hDAGLβ-FLAG)): ≤ 400 nM
- IC50 (DAGLα (hDAGLα-FLAG)): ≤ 400 nM
SMILES: CCC(CC)CN(CCc1cccnc1)C(=O)n1cc(-c2ccc(OC(F)(F)F)cc2)nn1 [Compound 136, N-(2-ethylbutyl)-N-(2-(pyridin-3-yl)ethyl)-4-(4-(trifluoromethoxy)phenyl)-1H-1,2,3-triazole-1-carboxamide]
